Source: patent US9962351B2, “Small molecule substance for improving sensitivity of bacteria to antibiotics” (priority 2012, dated 2018)
≈ marks a conversion by molar mass, not a printed value. Like-named read-outs stand apart in the source and are kept apart here.

Legend:
[1] = system: Escherichia coli K12 BW25113; assay: MIC by double dilution method, initial bacteria; assay type: cell-based; conditions: for MIC: Escherichia coli, BW25113, read-out: MIC0
Procedure: (§1) Escherichia coli is a bacterium that is most commonly found in the gut of human and animal. It mainly parasitizes in the intestines, and accounts for about 1% of the intestine bacteria. Minimum inhibitory concentration (MIC) of Escherichia coli K12 BW25113 for ten kinds of antibiotics was detected with double dilution method. Escherichia coli K12 BW25113 of 10^5 colony forming unit/ml was cultured respectively in Luria-Bertani (LB) liquid medium separately with each of ten antibiotics at the concentration of ½ MIC at 37° C., and was serially passaged 10 times, so that the MIC of single colony was determined.

[2] = system: antibiotic-resistant Escherichia coli (passaged K12 BW25113); assay: MIC of single colony after 10 serial passages with antibiotic at 1/2 MIC; assay type: cell-based; conditions: for MIC: Escherichia coli, BW25113, read-out: MIC10; for MIC10/MIC0: ratio of MIC after to before passage
Procedure: as §1

[3] = system: ampicillin-resistant Escherichia coli biofilm; assay: Mouse urinary tract catheter biofilm model, bacterial survival rate in biofilm; assay type: in vivo; conditions: mice, tail intravenous injection twice-daily for 3 days; glutamine 100 mg kg−1, glucose 100 mg kg−1, ampicillin 320 mg kg−1 as present
Procedure: (§2) Single clone of ampicillin-resistant Escherichia coli was selected and incubated in LB medium overnight, then transferred into 2 mL fresh LB medium according to the proportion of 1:200 dilutions and transferred to 6 mm ultraviolet sterilized PE-50 catheters. The catheters were inoculated in 1 mL LB at 37 for 24 h. The culture medium was changed every 24 hours for 3 days. The biofilm of ampicillin-resistant bacteria in PE50 catheters were washed with 1 mL sterile phosphate-buffered saline five times to remove loosely adherent cells, and then transferred to 1.5 mL EP tubes.
In vivo experiments in mice, female mice (5 weeks, weighing 18-20 g) received surgical implantation in the urinary tract of PESO catheter tubes. The mice were randomly divided into six groups in 48 h after the surgery, five each group. The six groups included treatment with saline (group 1), 100 mg kg^−1 glutamine (group 2), 320 mg kg^−1 ampicillin (group 3), 100 mg kg^−1 glutamine plus 320 mg kg^−1 ampicillin (group 4), 100 mg kg^−1 glucose plus 320 mg kg^−1 ampicillin (group 5), and 100 mg kg^−1 glutamine and 100 mg kg^−1 glucose plus 320 mg kg^−1 ampicillin (group 6) by tail intravenous injection for 3 days, twice-daily. Catheter tubes were extracted in 24 hours after the last treatment. […] The survival rate was calculated as: viable counts in treatment group/viable counts in control group×100%.

[4] = system: ampicillin-resistant Escherichia coli (AMP-R); assay type: cell-based
Procedure: Bacterium cultures of 20 mL were collected and centrifuged at 8,000 rpm for 5 minutes. The bacterial pellets were washed with equal volume of 0.85% saline solution, suspended in M9 medium containing 10 mM sodium acetate and then adjusted to OD600 of 0.5. […] These mixtures were cultured in a shaker at 200 rpm at 37° C. for 4 h. Then 100 μL of bacterial suspension was used for bacterial plate counting.
To investigate the effect of antibiotic dose on the sensitivity of bacteria to antibiotics by glutamine, 20 mM glutamine and 20, 40, 80, 160, 240, 320 and 400 μg/mL ampicillin were used to treat ampicillin-resistant Escherichia coli for 4 hours, and then bacterial plate counting was conducted. The survival rates of bacteria with and without glutamine were compared at the same antibiotic concentration.
To investigate the effect of exposure time on the killing efficiency, the viable counts of bacteria were counted during 1-8 hours after spiked with 20 mM glutamine and 160 μg/mL ampicillin.
To investigate the effect of glutamine concentration on killing efficiency and the optimum bactericidal concentrations, different concentrations of glutamine were added to 160 μg/mL ampicillin. The number of live bacteria was counted after 4 hours. The survival rate was calculated according to the formula below: viable counts at different concentration of glutamine/viable counts without glutamine×100%.
Single clone of ampicillin-resistant Escherichia coli was selected and inoculated in 100 mL LB medium and cultured at 200 rpm at 37° C. for 16 hours. Bacterial suspension of 20 mL was collected and centrifuged at 8,000 rpm for 5 min. The resulting bacterial pellets were washed with equal volume of 0.85% saline solution, suspended in M9 medium containing 10 mM sodium acetate and then adjusted to […] of 0.5. Aliquots of 5 mL bacterial cells were transferred to test tubes for further application.
The sample was added with 160 μg/mL ampicillin and 0-20 Mm glucose, then cultured in a shaker at 200 rpm at 37° C. for 4 hours. The cell number was counted and survival rate was calculated. […]

[5] = system: ampicillin-resistant Escherichia coli biofilm; assay: Biofilm on PE-50 catheters in vitro, survival rate; assay type: cell-based; conditions: 6 hours
Procedure: as §2
The test was divided into six groups: saline solution control, 20 mM glutamine, 160 μg/mL ampicillin, 160 μg/mL ampicillin plus 20 mM glutamine, 160 μg/mL ampicillin plus 20 mM glucose, 160 μg/mL ampicillin plus 20 mM glutamine and 20 mM glucose. The catheters were cultured in a shaker at 200 rpm at 37 for 6 hours. The bacterial biofilm was removed from catheters with sonication for 10 minutes. Serial dilutions and spot-plating were performed to determine the cell number. The bacterial survival rate was calculated as: viable counts in treatment group/viable counts in control group×100%.

[6] = system: antibiotic-resistant bacteria in kidneys; assay: Mouse urinary tract infection model, bacterial content in kidneys; assay type: in vivo; conditions: mice, tail i.v. twice-daily for 3 days; glutamine 100 mg kg−1, glucose 100 mg kg−1, ampicillin 320 mg kg−1 as present; saline group 16750
Procedure: In vivo experiments in mice, female mice (5 weeks, weighing 18-20 g) received surgical implantation in the urinary tract of PESO catheter tubes. The mice were randomly divided into six groups in 48 h after the surgery, five each group. The six groups included treatment with saline (group 1), 100 mg kg^−1 glutamine (group 2), 320 mg kg^−1 ampicillin (group 3), 100 mg kg^−1 glutamine plus 320 mg kg^−1 ampicillin (group 4), 100 mg kg^−1 glucose plus 320 mg kg^−1 ampicillin (group 5), and 100 mg kg^−1 glutamine and 100 mg kg^−1 glucose plus 320 mg kg^−1 ampicillin (group 6) by tail intravenous injection for 3 days, twice-daily. Catheter tubes were extracted in 24 hours after the last treatment. To dislodge biofilm cells, catheters were suspended in saline solution with ultrasonic. Serial dilutions and spot-plating were performed to determine the bacterial survival rate in biofilm. The survival rate was calculated as: viable counts in treatment group/viable counts in control group×100%.
Meanwhile, kidneys of mice were homogeneous with appropriate amount of saline. Bacterial content in kidneys was determined by plate counting method.

[7] = system: Escherichia coli K12 BW25113 (control bacteria); assay: Viable counts and survival rate of control bacteria; assay type: cell-based; conditions: 160 μg/mL ampicillin, without or with 20 mM glutamine, 4 hours
Procedure: The viable counts and survival rate of bacteria were calculated after added with 20 mM glutamine and 160 μg/mL ampicillin for 4 hours.
The viable counts and survival rate of bacteria were calculated after added with 20 mM glutamine and 4 kinds of penicillins (does for control bacteria were: ampicillin 25 μg/mL, penicillin G 200 μg/mL, amoxicillin 20 μg/mL, carbenicillin 100 μg/mL; does for antibiotic resistant bacteria were: ampicillin 320 μg/mL, penicillin G 2560 μg/mL, amoxicillin 512 μg/mL, carbenicillin 320 μg/mL) for 4 hours.
The viable counts and survival rate of bacteria were calculated after added with 20 mM glutamine and antibiotics at the concentration of 8 times of MIC for 4 hours.

| Compound | MIC [1] [µg/mL] | MIC [2] [µg/mL] | MIC10/MIC0 [2] | further results |
| --- | --- | --- | --- | --- |
| CN(C)[C@@H]1C(O)=C(C(N)=O)C(=O)[C@@]2(O)C(O)=C3C(=O)c4c(O)cccc4[C@@](C)(O)[C@H]3C[C@@H]12 [TET, tetracycline] | 3.12 (≈ 7.03 µM) | 200 | – | – |
| CC1(C)S[C@@H]2[C@H](NC(=O)[C@H](N)c3ccccc3)C(=O)N2[C@H]1C(=O)O [ampicillin] | 6.25 (≈ 17.9 µM) | 400 | 64 | bacterial survival rate in catheter biofilm in comparison with saline control [3]: 76.81%; survival rate ([4]; 20 μg/mL ampicillin, without or with 20 mM glutamine, 4 hours): 99.81%; survival rate ([4]; 40 μg/mL ampicillin, without or with 20 mM glutamine, 4 hours): 97.27%; survival rate ([4]; 80 μg/mL ampicillin, without or with 20 mM glutamine, 4 hours): 95.55%; survival rate ([4]; 160 μg/mL ampicillin without glutamine, 7 hours): 74%; survival rate ([4]; 160 μg/mL ampicillin without glutamine, after 8 hours): 66.19%; viable counts of bacteria ([4]; 160 μg/mL ampicillin without glutamine, during 1-4 hours): remained unchanged; survival rate ([4]; 160 μg/mL ampicillin, without glucose or with increasing glucose (0-20 Mm), 4 hours): 94.33%; survival rate ([4]; 160 μg/mL ampicillin, without glutamine or with increasing glutamine concentration, 4 hours): 94.33%; survival rate ([4]; 160 μg/mL ampicillin, without or with 20 mM glutamine, 4 hours): 93.72%; survival rate ([4]; 240 μg/mL ampicillin, without or with 20 mM glutamine, 4 hours): 86.72%; survival rate ([4]; 320 μg/mL ampicillin, without or with 20 mM glutamine, 4 hours): 83.51%; survival rate ([4]; 400 μg/mL ampicillin, without or with 20 mM glutamine, 4 hours): 67.15%; elimination of biofilm by single agent ([5]; 20 mM glutamine or 160 μg/mL ampicillin alone): did not eliminate the antibiotic-resistant bacterium biofilm; bacterial survival rate in biofilm (treatment group/saline control) ([5]; 20 mM glutamine, 160 μg/mL ampicillin, 20 mM glucose as present): 92.84%; bacterial content in kidneys [6]: 9129 cell/g; survival rate [7]: 74.22% |
| NC[C@H]1O[C@H](O[C@H]2[C@H](O)[C@@H](O[C@H]3O[C@H](CO)[C@@H](O)[C@H](N)[C@H]3O)[C@H](N)C[C@@H]2N)[C@H](O)[C@@H](O)[C@@H]1O [KAN, kanamycin] | 6.25 (≈ 12.9 µM) | 400 | 64 | – |
| gentamicin | – | – | 64 | MIC0 ([1]; before passage): 1.25 µg/mL; MIC10 ([2]; after 10 serial passages in LB with the respective antibiotic at 1/2 MIC, 37° C.): 80 µg/mL |
| O=C(N[C@H](CO)[C@H](O)c1ccc([N+](=O)[O-])cc1)C(Cl)Cl [CAP, chloramphenicol] | 6.8 (≈ 21 µM) | 435 | 64 | – |
| CC(C)(O/N=C(\C(=O)N[C@@H]1C(=O)N2C(C(=O)[O-])=C(C[n+]3ccccc3)CS[C@H]12)c1csc(N)n1)C(=O)O [CAZ, ceftazidime] | 0.125 (≈ 0.229 µM) | 8 | – | – |
| [H]/N=C(/N)N[C@H]1[C@H](O)[C@@H](O)[C@H](O[C@@H]2O[C@@H](C)[C@](O)(C=O)[C@H]2O[C@@H]2O[C@@H](CO)[C@H](O)[C@@H](O)[C@@H]2NC)[C@@H](N/C(N)=N\[H])[C@@H]1O [SM, streptomycin] | 6.25 (≈ 10.7 µM) | 400 | 64 | – |
| CNC1CCCN(c2c(F)cc3c(=O)c(C(=O)O)cn(C4CC4)c3c2OC)C1 (stereo not drawn) [BLFX, balofloxacin] | 0.25 (≈ 0.642 µM) | 16 | 64 | – |
| CC[C@H]1OC(=O)[C@H](C)[C@@H](O[C@H]2C[C@@](C)(OC)[C@@H](O)[C@H](C)O2)[C@H](C)[C@@H](O[C@@H]2O[C@H](C)C[C@H](N(C)C)[C@H]2O)[C@](C)(O)C[C@@H](C)C(=O)[C@H](C)[C@@H](O)[C@]1(C)O [ER, erythromycin] | 50 (≈ 68.1 µM) | 3200 | 64 | – |
| CCn1cc(C(=O)O)c(=O)c2ccc(C)nc21 [NA, nalidixic acid] | 5 (≈ 21.5 µM) | 320 | 64 | – |
